The target in one experiment is T1, hTRPM8 (Homo sapiens, UniProt Q7Z2W7).
T1 construct: expressed in transfected cells
The experiment is described as follows: Assay on TRPM8 modulators: calcium imaging (Fluo-4, Flexstation) in HEK293 cell line stably expressing hTRPM8. In kind it is cell-based. Put shortly: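 Calcium influx monitored by Fluo-4 (2.7 μM with […] probenecid, 1 h 37 °C loading) in HEK293 cells stably expressing hTRPM8, in HEPES buffer pH 7.4 with 2 mM CaCl2. Fluorescence read 15 s before and 105 s after adding serial compound dilutions. Maximal activation relative to solvent and 31.6 μM menthol; EC50 from sigmoidal fit.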

For experiment [1], the system named is panelists (mouth, mucosa). The experiment is described as follows: Sensory studies in aqueous solution (trained panel, swilling in the mouth). In kind it is in vivo, human. The following applies: 40 ppm in aqueous solution; for time of max cooling / Max. cooling: 20 mL swilled 60 seconds; for Max. cooling / Cooling after 1 h: averaged panel score on scale 0 to 10; for Cooling after 1 h: 1 h after swilling. The method, then: The compounds as listed below in Table 2 were dissolved at a concenteration of 1 wt-% in propylene glycol. These solutions were then dispensed in appropriate quantities into deionized water containing 0.5 wt-% Poloxamer 407 (which is a hydrophilic non-ionic surfactant, e.g., commercially available from SigmaAldrich) and 0.25 wt-% Cremaphor® RH40 (obtained from BASF) as solubilizer, to obtain the desired final concentration of 40 ppm (parts per milion) of the respective compound.
A trained group of panelists evaluated the aqueous solutions containing test compound by swilling 20 mL of the solution in the mouth for 60 seconds, followed by spitting, without rinsing the mouth afterwards for the duration of the evaluation. Panelists evaluated and recorded the cooling performance as well as other sensorial and organoleptic attributes at different timepoints over a period of two hours. Cooling performance was rated on a scale from 0 to 10 with 0 being no effect and 10 being freezing. Scores were averaged for all panelists and the cooling intensity qualified as “N” for “none” (score of 0), “L” for “low” (score above 0, up to 1), “M” for “medium” (score above 1, up to 4), “S” for “strong” (score above 4, up to 8) and “E” for “extreme” (score above 8), which are provided in Table 2. […] All tasted samples developed cooling sensation starting during swilling (almost immediately upon contact with the mucosa) and before expectorating.

[2] abbreviates: HEK293 cells stably expressing hTRPM8, calcium influx, sigmoidal dose-response fit, read-out: EC50.

Molecules are shown by their SMILES. pEC50: −log10 of the molar value. Where two headings read alike, the source gives them in different places.

These results are taken from patent US20230002334A1, “TRPM8 MODULATORS” (Givaudan SA, priority 2019, published 2023).

T1 sequence (Q7Z2W7 whole entry): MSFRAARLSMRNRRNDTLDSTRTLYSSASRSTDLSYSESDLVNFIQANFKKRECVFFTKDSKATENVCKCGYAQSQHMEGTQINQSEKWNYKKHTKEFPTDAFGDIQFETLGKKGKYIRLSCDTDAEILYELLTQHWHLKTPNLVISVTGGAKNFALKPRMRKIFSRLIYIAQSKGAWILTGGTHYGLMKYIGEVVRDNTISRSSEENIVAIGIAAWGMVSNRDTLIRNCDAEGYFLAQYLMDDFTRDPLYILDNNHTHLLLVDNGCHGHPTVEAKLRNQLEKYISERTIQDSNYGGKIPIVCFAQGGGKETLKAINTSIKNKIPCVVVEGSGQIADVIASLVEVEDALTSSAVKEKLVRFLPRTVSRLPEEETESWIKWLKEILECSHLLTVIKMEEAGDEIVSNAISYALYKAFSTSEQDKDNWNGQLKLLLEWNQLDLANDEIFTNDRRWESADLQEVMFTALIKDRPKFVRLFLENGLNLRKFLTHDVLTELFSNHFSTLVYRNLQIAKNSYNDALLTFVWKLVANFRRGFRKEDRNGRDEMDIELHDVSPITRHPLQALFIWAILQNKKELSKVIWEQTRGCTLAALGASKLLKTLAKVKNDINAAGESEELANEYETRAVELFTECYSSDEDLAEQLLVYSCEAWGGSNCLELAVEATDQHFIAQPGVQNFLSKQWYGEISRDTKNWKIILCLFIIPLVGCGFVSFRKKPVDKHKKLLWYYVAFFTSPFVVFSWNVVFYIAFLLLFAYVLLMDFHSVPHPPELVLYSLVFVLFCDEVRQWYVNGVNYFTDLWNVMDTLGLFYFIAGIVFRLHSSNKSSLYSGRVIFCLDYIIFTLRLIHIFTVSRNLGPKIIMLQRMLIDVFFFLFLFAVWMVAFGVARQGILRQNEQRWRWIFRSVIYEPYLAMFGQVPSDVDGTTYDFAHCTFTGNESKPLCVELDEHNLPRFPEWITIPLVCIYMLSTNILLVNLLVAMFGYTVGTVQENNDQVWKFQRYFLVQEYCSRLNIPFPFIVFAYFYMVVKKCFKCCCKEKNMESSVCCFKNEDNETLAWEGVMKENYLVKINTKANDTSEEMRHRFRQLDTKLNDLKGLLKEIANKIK

For the compound `CC1=CC[C@H](C2CCC3C(C2)N(C)OC3(C)C)CC1` (stereo partly drawn) [Compound 7, 1,3,3-trimethyl-6-((R)-4-methylcyclohex-3-en-1-yl)octahydrobenzo[c]isoxazole], the pEC50 on hTRPM8 (setting [2]) was 6.00 to 6.52. Further, in experiment [1], the “time of max cooling” value turned out to be 10 min; the Max. cooling result is reported as “M (“M” for “medium” (score above 1, up to 4))”; the “Cooling after 1 h” value was “L (“L” for “low” (score above 0, up to 1))”.

Turning to `CC1CC(C)C2C(C1)C(C)(C)ON2C` (stereo not drawn) [Compound 4, 1,3,3,5,7-pentamethyloctahydrobenzo[c]isoxazole], the pEC50 on hTRPM8 (setting [2]) is 4.46 to 6.00. In experiment [1], the “time of max cooling” value was 3 min; the Max. cooling entry is “M (“M” for “medium” (score above 1, up to 4))”; the “Cooling after 1 h” value was “L (“L” for “low” (score above 0, up to 1))”.

Take `CC(C)=CCC1(C)CC(C)C2C(C1)C(C)(C)ON2C` (stereo not drawn) [Compound 1, 1,3,3,5,7-pentamethyl-5-(3-methylbut-2-en-1-yl)octahydrobenzo[c]isoxazole]: the pEC50 at hTRPM8 (setting [2]) is 6.00 to 6.52. Also, in experiment [1], the “time of max cooling” value is 20 min; the Max. cooling result is “M (“M” for “medium” (score above 1, up to 4))”; the “Cooling after 1 h” value is “M (“M” for “medium” (score above 1, up to 4))”.

Consider `CC(C)N1OC(C)(C)[C@@H]2C[C@H](c3ccccc3)C[C@H](C)[C@H]21` (racemic) [Compound 64, rac-(3aR,5R,7S,7aR)-1-isopropyl-3,3,7-trimethyl-5-phenyloctahydrobenzo[c]isoxazole], for which, on hTRPM8 (setting [2]), the pEC50 was 6.52 to 7.30. Moreover, in experiment [1], the “time of max cooling” value worked out at 10 min; the Max. cooling entry was “M (“M” for “medium” (score above 1, up to 4))”; the “Cooling after 1 h” value was “M (“M” for “medium” (score above 1, up to 4))”.

`CC1CC(C)C2C(C1)C(C)(C)ON2C(C)C` (stereo not drawn) [Compound 12, 1-isopropyl-3,3,5,7-tetramethyloctahydrobenzo[c]isoxazole]: the pEC50 at hTRPM8 (setting [2]) was 6.00 to 6.52. In experiment [1], the “time of max cooling” value was found to be 5 min; the Max. cooling entry is recorded as “M (“M” for “medium” (score above 1, up to 4))”; the “Cooling after 1 h” value is recorded as “L (“L” for “low” (score above 0, up to 1))”.

Take `CC[C@@H]1C[C@H](CC)[C@@H]2[C@@H](C1)C(C)(C)ON2C(C)C` (racemic) [Compound 111, rac-(3aR,5R,7S,7aR)-5,7-diethyl-1-isopropyl-3,3-dimethyloctahydrobenzo[c]isoxazole]: the pEC50 at hTRPM8 (setting [2]) is 6.00 to 6.52. Further, in experiment [1], the “time of max cooling” value was 10 min; the Max. cooling result is “M (“M” for “medium” (score above 1, up to 4))”; the “Cooling after 1 h” value was “L (“L” for “low” (score above 0, up to 1))”.

For the compound `C[C@H]1C[C@@](C)(c2cccc(C#N)c2)C[C@@H]2[C@@H]1N(C)OC2(C)C` (racemic) [Compound 124, rac-3-((3aR,5R,7S,7aR)-1,3,3,5,7-pentamethyloctahydrobenzo[c]isoxazol-5-yl)benzonitrile], the pEC50 at hTRPM8 (setting [2]) was more than 7.30. Moreover, in experiment [1], the “time of max cooling” value worked out at 5 min; the Max. cooling entry is listed as “S (“S” for “strong” (score above 4, up to 8))”; the “Cooling after 1 h” value was “M (“M” for “medium” (score above 1, up to 4))”.

Consider `COc1ccccc1[C@H]1C[C@@H]2[C@@H]([C@@H](C)C1)N(C)OC2(C)C` (racemic) [Compound 83, rac-(3aR,5R,7S,7aR)-5-(2-methoxyphenyl)-1,3,3,7-tetramethyloctahydrobenzo[c]isoxazole], for which, at hTRPM8 (setting [2]), the pEC50 is more than 7.30. In addition, in experiment [1], the “time of max cooling” value was determined as 10 min; the Max. cooling entry is given as “S (“S” for “strong” (score above 4, up to 8))”; the “Cooling after 1 h” value was “L (“L” for “low” (score above 0, up to 1))”.

Regarding `CC(C)=CC[C@H]1C[C@@H]2[C@@H]([C@@H](C)C1)N(C)OC2(C)C` (racemic) [Compound 50, rac-(3aR,5R,7S,7aR)-1,3,3,7-tetramethyl-5-(3-methylbut-2-en-1-yl)octahydrobenzo[c]isoxazole], at hTRPM8, the pEC50 is 6.52 to 7.30. Further, in experiment [1], the “time of max cooling” value worked out at 10 min; the Max. cooling entry is “M (“M” for “medium” (score above 1, up to 4))”; the “Cooling after 1 h” value is “M (“M” for “medium” (score above 1, up to 4))”.

`CCC[C@@H]1CC[C@@H]2[C@@H](C1)C(C)(C)ON2C(C)C` (racemic) [Compound 26, rac-(3aR,5R,7aR)-1-isopropyl-3,3-dimethyl-5-propyloctahydrobenzo[c]isoxazole]: the pEC50 at hTRPM8 (setting [2]) was 6.00 to 6.52. In experiment [1], the “time of max cooling” value is 10 min; the Max. cooling result was “S (“S” for “strong” (score above 4, up to 8))”; the “Cooling after 1 h” value was “M (“M” for “medium” (score above 1, up to 4))”.

As for `CCN1OC(C)(C)C2CC(CC=C(C)C)CC(C)C21` (racemic) [Compound 120, rac-(3aS,5S,7S,7aS)-1-ethyl-3,3,7-trimethy)-5-(3-methylbut-2-en-1-yl)octahydrobenzo[c]isoxazole], the pEC50 at hTRPM8 (setting [2]) was 6.00 to 6.52. Also, in experiment [1], the “time of max cooling” value came to 10 min; the Max. cooling result was “M (“M” for “medium” (score above 1, up to 4))”; the “Cooling after 1 h” value is on record as “L (“L” for “low” (score above 0, up to 1))”.

Turning to `C[C@H]1C[C@@](C)(c2cc(F)cc(F)c2)C[C@@H]2[C@@H]1N(C)OC2(C)C` (racemic) [Compound 85, rac-(3aR,5R,7S,7aR)-5-(3,5-difluorophenyl)-1,3,3,5,7-pentamethyloctahydrobenzo[c]isoxazole], the pEC50 at hTRPM8 (setting [2]) is more than 7.30. In addition, in experiment [1], the “time of max cooling” value worked out at 10 min; the Max. cooling result is reported as “M (“M” for “medium” (score above 1, up to 4))”; the “Cooling after 1 h” value is listed as “M (“M” for “medium” (score above 1, up to 4))”.

Take `COc1ccccc1[C@H]1C[C@@H]2[C@@H]([C@@H](C)C1)N(C(C)C)OC2(C)C` (racemic) [Compound 66, rac-(3aR,5R,7S,7aR)-1-isopropyl-5-(2-methoxyphenyl)-3,3,7-trimethyloctahydrobenzo[c]isoxazole]: the pEC50 on hTRPM8 (setting [2]) is more than 7.30. Also, in experiment [1], the “time of max cooling” value came to 20 min; the Max. cooling result is reported as “M (“M” for “medium” (score above 1, up to 4))”; the “Cooling after 1 h” value is given as “M (“M” for “medium” (score above 1, up to 4))”.

Consider `CCN1OC(C)(C)C2CC(C)(CC=C(C)C)CC(C)C21` (stereo not drawn) [Compound 9, 1-ethyl-3,3,5,7-tetramethyl-5-(3-methylbut-2-en-1-yl)octahydrobenzo[c]isoxazole], for which the pEC50 on hTRPM8 (setting [2]) was 6.52 to 7.30. In addition, in experiment [1], the “time of max cooling” value was 10 min; the Max. cooling entry is “M (“M” for “medium” (score above 1, up to 4))”; the “Cooling after 1 h” value was “M (“M” for “medium” (score above 1, up to 4))”.

`CC(C)=CC[C@@]1(C)C[C@@H]2[C@@H]([C@@H](C)C1)N(C(C)C)OC2(C)C` (racemic) [Compound 58, rac-(3aR,5R,7S,7aR)-1-isopropyl-3,3,5,7-tetramethyl-5-(3-methylbut-2-en-1-yl)octahydrobenzo[c]isoxazole]: at hTRPM8 (setting [2]), the pEC50 was 6.52 to 7.30.

In the case of `Cc1ccccc1[C@H]1C[C@@H]2[C@@H]([C@@H](C)C1)N(C(C)C)OC2(C)C` (racemic) [Compound 63, rac-(3aR,5R,7S,7aR)-1-isopropyl-3,3,7-trimethyl-5-(o-tolyl)octahydrobenzo[c]isoxazole], the pEC50 on hTRPM8 (setting [2]) was 6.00 to 6.52.

Consider `CSc1ccc([C@@]2(C)C[C@@H]3[C@@H]([C@@H](C)C2)N(C)OC3(C)C)cc1` (racemic) [Compound 40, rac-(3aR,5R,7S,7aR)-1,3,3,5,7-pentamethyl-5-(4-(methylthio)phenyl)octahydrobenzo[c]isoxazole], for which the pEC50 at hTRPM8 (setting [2]) was 6.52 to 7.30.

As to `CCC[C@@]1(C)C[C@@H]2[C@@H]([C@@H](C)C1)N(C(C)C)OC2(C)C` (racemic) [Compound 61, rac-(3aR,5R,7S,7aR)-1-isopropyl-3,3,5,7-tetramethyl-5-propyloctahydrobenzo[c]isoxazole], the pEC50 at hTRPM8 (setting [2]) is 4.46 to 6.00.

By pEC50 is commonly meant the EC50 on a negative log10 scale, so that one unit is a factor of ten.
